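These data come from cells grown in 96-well plates and exposed to compound for 48 hours at five concentrations. Abbreviation: GI50, concentration required for 50% inhibition of growth. Definition used: TGI = concentration required for complete inhibition of growth.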
Key:
Experiment in all cases: growth of human tumour cells (NCI), 48 h
[1] = test system: 786-0 renal
[2] = test system: A498 renal
[3] = test system: A549 NSCLC
[4] = test system: ACHN renal
[5] = test system: BT-549 breast
[6] = test system: CAKI-1 renal
[7] = test system: CCRF-CEM leukemia
[8] = test system: COLO 205 colon
[9] = test system: DU-145 prostate
[10] = test system: EKVX NSCLC
[11] = test system: HCC-2998 colon
[12] = test system: HCT-116 colon
[13] = test system: HCT-15 colon
[14] = test system: HL-60(TB) leukemia
[15] = test system: HOP-62 NSCLC
[16] = test system: HS 578T breast
[17] = test system: HT29 colon
[18] = test system: IGROV1 ovarian
[19] = test system: K-562 leukemia
[20] = test system: KM12 colon
[21] = test system: LOX IMVI melanoma
[22] = test system: M14 melanoma
[23] = test system: MALME-3M melanoma
[24] = test system: MCF7 breast
[25] = test system: MDA-MB-231 breast
[26] = test system: MDA-MB-435
[27] = test system: MOLT-4 leukemia
[28] = test system: NCI-H23 lung
[29] = test system: NCI-H460 lung
[30] = test system: NCI-H522 lung
[31] = test system: NCI/ADR-RES ovarian
[32] = test system: OVCAR-3 ovarian
[33] = test system: OVCAR-4 ovarian
[34] = test system: OVCAR-5 ovarian
[35] = test system: OVCAR-8 ovarian
[36] = test system: PC-3 prostate
[37] = test system: RPMI-8226 leukemia
[38] = test system: RXF 393 renal
[39] = test system: SF-268 CNS
[40] = test system: SF-539 CNS
[41] = test system: SK-MEL-2 melanoma
[42] = test system: SK-MEL-28 melanoma
[43] = test system: SK-OV-3 ovarian
[44] = test system: SN12C renal
[45] = test system: SNB-19 CNS
[46] = test system: SNB-75 CNS
[47] = test system: SR leukemia
[48] = test system: SW-620 colon
[49] = test system: T-47D breast
[50] = test system: TK-10 renal
[51] = test system: U251 CNS
[52] = test system: UACC-257 melanoma
[53] = test system: UACC-62 melanoma
[54] = test system: UO-31 renal

## COc1cc2nc(SCC(=O)Nc3cc(OC)c(OC)c(OC)c3)n(Cc3ccccc3)c(=O)c2cc1OC
[1]
  GI50: 3.51 µM
  TGI: 17.6 µM
[2]
  GI50: 1.75 µM
  TGI: 32.5 µM
[3]
  GI50: 5.13 µM
  TGI: > 100 µM
[4]
  GI50: 4.63 µM
  TGI: > 100 µM
[5]
  GI50: 2.02 µM
  TGI: 5.61 µM
[6]
  GI50: 3.05 µM
  TGI: 28.8 µM
[7]
  GI50: > 100 µM
  TGI: > 100 µM
[8]
  GI50: 15.3 µM
  TGI: 33 µM
[9]
  GI50: 7.44 µM
  TGI: > 100 µM
[10]
  GI50: 5.12 µM
  TGI: 31.1 µM
[11]
  GI50: 50.6 µM
  TGI: > 100 µM
[12]
  GI50: 6.74 µM
  TGI: 78.9 µM
[13]
  GI50: > 100 µM
  TGI: > 100 µM
[14]
  GI50: > 100 µM
  TGI: > 100 µM
[15]
  GI50: 2.03 µM
  TGI: 4.28 µM
[16]
  GI50: 2.46 µM
  TGI: 9.45 µM
[17]
  GI50: 16.6 µM
  TGI: 38.7 µM
[18]
  GI50: 7.34 µM
  TGI: > 100 µM
[19]
  GI50: > 100 µM
  TGI: > 100 µM
[20]
  GI50: > 100 µM
  TGI: > 100 µM
[21]
  GI50: 4.71 µM
  TGI: > 100 µM
[22]
  GI50: 16.1 µM
  TGI: > 100 µM
[23]
  GI50: 3.3 µM
  TGI: > 100 µM
[24]
  GI50: 7.93 µM
  TGI: > 100 µM
[25]
  GI50: 3.73 µM
  TGI: 37.8 µM
[26]
  GI50: 4.91 µM
  TGI: > 100 µM
[27]
  GI50: > 100 µM
  TGI: > 100 µM
[28]
  GI50: 4.17 µM
  TGI: 50.3 µM
[29]
  GI50: 6.72 µM
  TGI: > 100 µM
[30]
  GI50: 3.65 µM
  TGI: 32.4 µM
[31]
  GI50: 3.3 µM
  TGI: 11.6 µM
[32]
  GI50: 7.68 µM
  TGI: 50.3 µM
[33]
  GI50: 2.11 µM
  TGI: 5.56 µM
[34]
  GI50: > 100 µM
  TGI: > 100 µM
[35]
  GI50: 3.46 µM
  TGI: 34.9 µM
[36]
  GI50: 3.2 µM
  TGI: > 100 µM
[37]
  GI50: > 100 µM
  TGI: > 100 µM
[38]
  GI50: 2.55 µM
  TGI: 8.35 µM
[39]
  GI50: 3.57 µM
  TGI: 23.2 µM
[40]
  GI50: 2.37 µM
  TGI: 5.78 µM
[41]
  GI50: 3.41 µM
  TGI: 10.6 µM
[42]
  GI50: 3.02 µM
  TGI: 11.4 µM
[43]
  GI50: 2.91 µM
  TGI: 7.26 µM
[44]
  GI50: 4.7 µM
  TGI: > 100 µM
[45]
  GI50: 2.92 µM
  TGI: 18.1 µM
[46]
  GI50: 1.57 µM
  TGI: 3.38 µM
[47]
  GI50: 40.9 µM
  TGI: > 100 µM
[48]
  GI50: > 100 µM
  TGI: > 100 µM
[49]
  GI50: 6.57 µM
  TGI: > 100 µM
[50]
  GI50: 4.06 µM
  TGI: 21.5 µM
[51]
  GI50: 3.18 µM
  TGI: 11.2 µM
[52]
  GI50: 3.55 µM
  TGI: > 100 µM
[53]
  GI50: 2.35 µM
  TGI: 6.82 µM
[54]
  GI50: 1.95 µM
  TGI: 8.85 µM
